Results reported in patent US11406694B2, “Vaccine comprising drug and parasite administration” (priority 2016, dated 2022).

Tests used:
P. falciparum 7G8 = assay: Blood stage P. falciparum infection of human volunteers under doxycycline, parasitaemia by qPCR; format: in vivo; conditions: two volunteers, 3×10^6 P. falciparum pRBC, 100 mg doxycycline once daily for 21 days
Experimental: FIG. 13: Persistence of P. falciparum 7G8 in volunteers receiving doxycycline chemoprophylaxis. […] Volunteers received 3×106 pRBCs on D0, followed by doxycycline treatment administered orally (100 mg/day) from D0 to D20.
We have also started human experiments. Initially we have given two volunteers a blood stage infection initiated with 3×10^6 magnet-purified P. falciparum trophozoite-parasitized human red cells (pRBC). At the same time, volunteers were administered 100 mg doxycycline once daily for 21 days, although this could be changed to twice daily. A controlled release form of doxycycline (such as Atridox® comprising doxycycline hyclate) will also be tested.
Parasite concentration is determined whereby the log10 of each known concentration of a standard concentration range is plotted against the quantification cycle of Cq values of the test samples in a linear regression model (y=mx+b) using Biorad CFX manager 2.1 software.

Plasmodium parasite = assay: Blood-stage infection of mice under daily doxycycline treatment (course of infection during infection/drug cure); format: in vivo
Experimental: The work described herein relates to giving mice and humans a blood stage malaria infection and daily doses of oral (human) or intraperitoneal (mice) doxycycline as a delayed death agent. This cycle can be repeated and we have given mice 1 or 3 cycles of infection/drug cure (IDC) with doxycycline.
Mice (BALB/c or C57/B6) received varying doses of Plasmodium parasite (10^5-10^7 trophozoite parasitised red blood cells; pRBC), administered via intravenous injection (200 μL). Mice were subsequently started on doxycycline treatment (doxycycline hydrate (Sigma) dissolved in 1× phosphate buffered saline, 50 mg/kg administered in ˜100 μL volume via intraperitoneal injection) approximately 1-2 hours post infection. Mice received treatment every day for 7 days. Subsequent infection and drug cures (IDCs) were administered 2 weeks from the day of last treatment (or 3 weeks between infections). Mice were challenged 4 weeks from the day of last treatment of the last round of IDC (or 5 weeks from last infection).
Blood smears were performed on D1, 2, 4 and 6 post infection during IDC 1, 2 and 3.

## C[C@H]1c2cccc(O)c2C(=O)C2=C(O)[C@]3(O)C(=O)C(C(N)=O)=C(O)[C@@H](N(C)C)[C@@H]3[C@@H](O)[C@@H]21 [doxycycline]
P. falciparum 7G8
  illness of the volunteers: did not become ill
Plasmodium parasite; 10^5-10^7 pRBC i.v., doxycycline 50 mg/kg i.p. daily for 7 days
  time the infection takes to clear: approximately 4 days
Plasmodium parasite; pRBC i.v. with doxycycline 50 mg/kg i.p. daily for 7 days
  condition of the mice during the infection: remain well
